Several values for one entry are separate records, joined by “and”; a condition that tells them apart may be missing. Identical values can stand only once. Toxic doses and inconclusive results are not listed. Rule for the calls: active = survival T/C of 150% or more; inactive = T/C below 125% in these data.
Test system: P388 leukemia ip, CD2F1 mice, survival T/C
Test: NCI In Vivo Anticancer Drug Screen. Data for tumor model P388 Leukemia (intraperitoneal) in CD2F1 (CDF1) mice
Settings: endpoint: median survival time, higher = longer survival
Outline: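 Mice carrying the transplanted tumor received test compound or vehicle. Survival was recorded in each group, and the value is the treated-group measurement divided by that of the vehicle-treated control group.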

[1] = dose: 50.0 mg/kg/injection, schedule: Q01DX005 (ip), vehicle: saline with Tween-80
[2] = dose: 100.0 mg/kg/injection, schedule: Q01DX005 (ip), vehicle: saline with Tween-80
[3] = dose: 200.0 mg/kg/injection, schedule: Q01DX005 (ip), vehicle: saline with Tween-80
[4] = dose: 100.0 mg/kg/injection, schedule: Q01DX009 (ip), vehicle: saline with Tween-80
[5] = dose: 100.0 mg/kg/injection, schedule: Q04DX003 (ip), vehicle: saline with Tween-80
[6] = dose: 200.0 mg/kg/injection, schedule: Q01DX009 (ip), vehicle: saline with Tween-80
[7] = dose: 400.0 mg/kg/injection, schedule: Q01DX009 (ip), vehicle: saline with Tween-80
[8] = dose: 12.5 mg/kg/injection, schedule: Q01DX009 (ip), vehicle: saline with Tween-80
[9] = dose: 25.0 mg/kg/injection, schedule: Q01DX009 (ip), vehicle: saline with Tween-80
[10] = dose: 50.0 mg/kg/injection, schedule: Q01DX009 (ip), vehicle: saline with Tween-80
[11] = dose: 3.13 mg/kg/injection, schedule: Q01DX009 (ip), vehicle: saline with Tween-80
[12] = dose: 6.25 mg/kg/injection, schedule: Q01DX009 (ip), vehicle: saline with Tween-80
[13] = dose: 50.0 mg/kg/injection, schedule: Q01DX005 (ip), vehicle: Klucel (hydroxypropylcellulose) (HPC)
[14] = dose: 100.0 mg/kg/injection, schedule: Q01DX005 (ip), vehicle: Klucel (hydroxypropylcellulose) (HPC)
[15] = dose: 200.0 mg/kg/injection, schedule: Q01DX005 (ip), vehicle: Klucel (hydroxypropylcellulose) (HPC)
[16] = dose: 60.0 mg/kg/injection, schedule: Q01DX005 (ip), vehicle: saline with Tween-80
[17] = dose: 120.0 mg/kg/injection, schedule: Q01DX005 (ip), vehicle: saline with Tween-80
[18] = dose: 240.0 mg/kg/injection, schedule: Q01DX005 (ip), vehicle: saline with Tween-80

Measured: T/C

CC(=O)OC1CC2CCCCC2[N+](C)(C)C1 (stereo not given)
inactive: dose: 25.0 mg/kg/injection, schedule: Q04DX003 (ip), vehicle: saline 106 % of control | dose: 50.0 mg/kg/injection, schedule: Q04DX003 (ip), vehicle: saline 103 % of control | dose: 100.0 mg/kg/injection, schedule: Q04DX003 (ip), vehicle: saline 104 % of control

O=[N+]([O-])OC1CCCC(O[N+](=O)[O-])c2c1n([O-])c1ccccc1[n+]2=O (stereo not given)
inactive: [1] 95 % of control | [2] 89 % of control | [3] 92 % of control

Nc1nc(Br)c2[nH]cnc2n1
inactive: [4] 110 % of control | [5] 118 % of control | [6] 120 % of control | dose: 200.0 mg/kg/injection, schedule: Q04DX003 (ip), vehicle: saline with Tween-80 113 % of control | [7] 90 % of control | dose: 400.0 mg/kg/injection, schedule: Q04DX003 (ip), vehicle: saline with Tween-80 109 % of control

O=C(N/N=C/c1cc(Br)ccc1[O-])c1ccccc1O.O=C(N/N=C/c1cc(Br)ccc1[O-])c1ccccc1O.[Co+2]
inactive: dose: 100.0 mg/kg/injection, schedule: Q04DX002 (ip), vehicle: Klucel (hydroxypropylcellulose) (HPC) 90 % of control | dose: 200.0 mg/kg/injection, schedule: Q04DX002 (ip), vehicle: Klucel (hydroxypropylcellulose) (HPC) 90 % of control

CN(C/C=C/CN(C)N=O)N=O
inactive: dose: 12.5 mg/kg/injection, schedule: Q01DX009 (ip), vehicle: Klucel (hydroxypropylcellulose) (HPC) 116 % of control | dose: 25.0 mg/kg/injection, schedule: Q01DX009 (ip), vehicle: Klucel (hydroxypropylcellulose) (HPC) 118 % of control | dose: 50.0 mg/kg/injection, schedule: Q01DX009 (ip), vehicle: Klucel (hydroxypropylcellulose) (HPC) 96 % of control

CC(=O)c1ccc[n+](CCc2c[nH]c3ccccc23)c1
inactive: [8] 104 % of control | [9] 113 % of control | [10] 109 % of control

CNc1ccc(N=Nc2ccc3ncccc3c2)cc1
inactive: [11] 104 % of control | [12] 95 % of control | [8] 90 % of control | dose: 25.0 mg/kg/injection, schedule: Q04DX003 (ip), vehicle: saline with Tween-80 100 % of control | dose: 50.0 mg/kg/injection, schedule: Q04DX003 (ip), vehicle: saline with Tween-80 90 % of control | [5] 86 % of control

CNC(=O)OC1=NCCN1
inactive: [13] 94 % of control | [14] 100 % of control | [15] 99 % of control

CC(C)n1c(Cl)c(C(=O)O)c2ccccc21
inactive: dose: 100.0 mg/kg/injection, schedule: Q04DX002 (ip), vehicle: saline with Tween-80 100 % of control | dose: 200.0 mg/kg/injection, schedule: Q04DX002 (ip), vehicle: saline with Tween-80 98 % of control | dose: 400.0 mg/kg/injection, schedule: Q04DX002 (ip), vehicle: saline with Tween-80 100 % of control

O=c1oc2c(c(N(c3ccccc3)c3ccccc3)c1Cl)CCc1nc(-c3ccccc3)sc1-2
inactive: [1] 91 % of control | [2] 94 % of control | [3] 88 % of control

CC(C)n1nnc2c3ccccc3c3ccccc3c21
inactive: [16] 109 % of control | [17] 102 % of control | [18] 105 % of control

CCOc1c(N=Nc2ccc(O)cc2)c(C)nn1C(=S)SC
inactive: dose: 60.0 mg/kg/injection, schedule: Q01DX005 (ip), vehicle: Klucel + Tween-80 107 % of control | dose: 120.0 mg/kg/injection, schedule: Q01DX005 (ip), vehicle: Klucel + Tween-80 104 % of control | dose: 240.0 mg/kg/injection, schedule: Q01DX005 (ip), vehicle: Klucel + Tween-80 100 % of control

CCOP(=O)(OCC)SCSC(C)C
inactive: dose: 0.04 mg/kg/injection, schedule: Q01DX009 (ip), vehicle: Klucel (hydroxypropylcellulose) (HPC) 102 % of control | dose: 0.09 mg/kg/injection, schedule: Q01DX009 (ip), vehicle: Klucel (hydroxypropylcellulose) (HPC) 102 % of control | dose: 0.19 mg/kg/injection, schedule: Q01DX009 (ip), vehicle: Klucel (hydroxypropylcellulose) (HPC) 108 % of control

CN1CCN(CCCN2c3ccccc3Sc3ccc(C(F)(F)F)cc32)CC1
inactive: [9] 109 % of control | [10] 118 % of control
active: dose: 66.0 mg/kg/injection, schedule: Q04DX003 (ip), vehicle: saline with Tween-80 163 % of control | [5] 150 % of control

Nc1c(C(=O)O)[nH]c(=O)[nH]c1=O
inactive: [8] 119 % of control | [9] 119 % of control | [10] 120 % of control | [4] 118 % of control

Cc1cc2nc(C=C(C(F)(F)F)C(F)(F)F)oc2cc1C
inactive: dose: 1.56 mg/kg/injection, schedule: Q01DX009 (ip), vehicle: saline with Tween-80 98 % of control | [11] 98 % of control | [12] 95 % of control | [8] 93 % of control

O=C1CCCc2cc3c(nc21)C(=O)CCC3
inactive: [13] 100 % of control | [14] 100 % of control | [15] 109 % of control

CCOC(=O)N1CCc2cc(OC)c(OC)cc2/C1=C/c1cc(OC)c(OC)cc1Br
inactive: dose: 12.5 mg/kg/injection, schedule: Q01DX009 (ip), vehicle: other 94 % of control | dose: 25.0 mg/kg/injection, schedule: Q01DX009 (ip), vehicle: other 96 % of control | dose: 50.0 mg/kg/injection, schedule: Q01DX009 (ip), vehicle: other 96 % of control | dose: 100.0 mg/kg/injection, schedule: Q01DX009 (ip), vehicle: other 93 % of control | dose: 200.0 mg/kg/injection, schedule: Q01DX009 (ip), vehicle: other 93 % of control

C(=C/c1cc2ccc(C3=NCCN3)cc2o1)/c1cc2ccc(C3=NCCN3)cc2[nH]1
active: dose: 100.0 mg/kg/injection, schedule: Q04DX003 (ip), vehicle: suspension in saline 158 % of control and 164 % of control | dose: 200.0 mg/kg/injection, schedule: Q04DX003 (ip), vehicle: suspension in saline 298 % of control
inactive: dose: 50.0 mg/kg/injection, schedule: Q04DX003 (ip), vehicle: suspension in saline 114 % of control

CC(C)(C)C(N)=S=O
inactive: dose: 50.0 mg/kg/injection, schedule: Q01DX005 (ip), vehicle: saline 101 % of control | dose: 100.0 mg/kg/injection, schedule: Q01DX005 (ip), vehicle: saline 106 % of control | dose: 200.0 mg/kg/injection, schedule: Q01DX005 (ip), vehicle: saline 106 % of control

CCCNCC/C=C/[Si](C)(C)C
inactive: dose: 60.0 mg/kg/injection, schedule: Q01DX005 (ip), vehicle: saline 105 % of control | dose: 120.0 mg/kg/injection, schedule: Q01DX005 (ip), vehicle: saline 100 % of control

COC(=O)C1(C)C(=O)C=CC2(C)C1CC(O)C1(C)C2C(O)C(O)C2(C)C(c3ccoc3)CC3OC321 (stereo not given) (tested in a mixture with another compound)
inactive: dose: 0.75 mg/kg/injection, schedule: Q01DX005 (ip), vehicle: Klucel (hydroxypropylcellulose) (HPC) 102 % of control | dose: 1.5 mg/kg/injection, schedule: Q01DX005 (ip), vehicle: Klucel (hydroxypropylcellulose) (HPC) 96 % of control | dose: 3.0 mg/kg/injection, schedule: Q01DX005 (ip), vehicle: Klucel (hydroxypropylcellulose) (HPC) 96 % of control | dose: 6.0 mg/kg/injection, schedule: Q01DX005 (ip), vehicle: Klucel (hydroxypropylcellulose) (HPC) 99 % of control | dose: 12.0 mg/kg/injection, schedule: Q01DX005 (ip), vehicle: Klucel (hydroxypropylcellulose) (HPC) 103 % of control

COc1ccc(C2OC(=O)CN2C(=O)c2ccccc2)cc1 (stereo not given)
inactive: [1] 107 % of control | [2] 95 % of control | [3] 90 % of control

O=S(=O)(Nc1ccc(C(F)(F)F)cc1)c1ccc(F)cc1
inactive: [16] 100 % of control | [17] 100 % of control | [18] 104 % of control

COC(=O)c1ccnc(C(=O)OC)c1
inactive: dose: 50.0 mg/kg/injection, schedule: Q01DX001 (ip), vehicle: saline 86 % of control | dose: 100.0 mg/kg/injection, schedule: Q01DX001 (ip), vehicle: saline 95 % of control | dose: 200.0 mg/kg/injection, schedule: Q01DX001 (ip), vehicle: saline 100 % of control

S=C1SCN(C2CCCCCCCCCCC2)CN1C1CCCCCCCCCCC1
inactive: [10] 94 % of control | [4] 93 % of control | [6] 97 % of control | [7] 101 % of control

From PubChem BioAssay AID330 (DTP/NCI, 2004)
